Assay results as given in ChEMBL document CHEMBL1201862, “PubChem BioAssay data set” (2004).
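Interpolation was linear, between the two tested concentrations surrounding the appropriate level; five concentrations were tested over 48 hours in 96-well plates. Abbreviation: GI50, concentration required for 50% inhibition of growth.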 Active and inactive are the calls of the source. No stated cut-off is given here; in the data, active = GI50 up to about 1.1 µM and inactive = higher.

Assays:
Test in all cases: growth of human tumour cells (NCI), 48 h
[1] = system: SN12C
[2] = system: OVCAR-3
[3] = system: SK-MEL-2
[4] = system: SR
[5] = system: HL-60
[6] = system: HOP-92
[7] = system: NCI-H460
[8] = system: BT-549
[9] = system: EKVX
[10] = system: MDA-MB-435
[11] = system: COLO 205
[12] = system: MDA-MB-231
[13] = system: HOP-62
[14] = system: 786-0
[15] = system: IGROV-1
[16] = system: UO-31
[17] = system: T47D
[18] = system: SNB-75
[19] = system: HCT-15
[20] = system: K562

SMILES	GI50 [1]	GI50 [2]	GI50 [3]	GI50 [4]	GI50 [5]	GI50 [6]	GI50 [7]	GI50 [8]	GI50 [9]	GI50 [10]	GI50 [11]	GI50 [12]	GI50 [13]	GI50 [14]	GI50 [15]	GI50 [16]	GI50 [17]	GI50 [18]	GI50 [19] [µM]	GI50 [20]
N=C(N)N/N=C/c1nc2n(c1[N+](=O)[O-])CCS2	22 µM (inactive)	7.35 µM (inactive)	17.5 µM (inactive)	14.5 µM (inactive)	22.5 µM (inactive)	> 100 µM (inactive)	18.1 µM (inactive)	31.6 µM (inactive)	22.9 µM (inactive)	27.9 µM (inactive)	14 µM (inactive)	29 µM (inactive)	41.4 µM (inactive)	38.6 µM (inactive)	50.2 µM (inactive)	> 100 µM (inactive)	17.3 µM (inactive)	23.9 µM (inactive)	65.3	–
CCOC(=O)C1C(c2ccc(OC)cc2)c2c(nn(-c3ccccc3)c2O)CC1(C)O (stereo unspecified)	91.2 µM (inactive)	80.4 µM (inactive)	93.8 µM (inactive)	6.49 µM (inactive)	1.38 µM (inactive)	92.3 µM (inactive)	5.48 µM (inactive)	0.0159 µM (active)	51.8 µM (inactive)	3.02 µM (inactive)	16 µM (inactive)	59.2 µM (inactive)	> 100 µM (inactive)	> 100 µM (inactive)	> 100 µM (inactive)	11 µM (inactive)	12.9 µM (inactive)	> 100 µM (inactive)	14.3	–
CCOP(=O)(OCC)C(NC(=O)OCC(Cl)(Cl)Cl)n1nnc(C(=O)OC)c1C(=O)OC (stereo unspecified)	> 10 µM (inactive)	> 100 µM (inactive)	> 100 µM (inactive)	> 100 µM (inactive)	> 100 µM (inactive)	> 100 µM (inactive)	> 100 µM (inactive)	> 100 µM (inactive)	> 100 µM (inactive)	> 100 µM (inactive)	> 100 µM (inactive)	> 100 µM (inactive)	> 100 µM (inactive)	> 100 µM (inactive)	> 100 µM (inactive)	> 100 µM (inactive)	> 100 µM (inactive)	> 100 µM (inactive)	> 100	> 100 µM (inactive)
O=C1C=CC2(C=C1)O[C@H](Cc1ccccc1)[C@@H](Cc1ccccc1)O2	0.665 µM (active)	0.298 µM (active)	1.41 µM (inactive)	0.11 µM (active)	1.28 µM (inactive)	1.01 µM (active)	8.79 µM (inactive)	0.201 µM (active)	0.355 µM (active)	1.31 µM (inactive)	1.55 µM (inactive)	1.12 µM (active)	1.15 µM (inactive)	–	0.218 µM (active)	0.258 µM (active)	0.44 µM (active)	2.91 µM (inactive)	0.243	0.388 µM (active)
NC(Cc1ncccn1)C(=O)O (stereo unspecified)	> 100 µM (inactive)	> 100 µM (inactive)	> 100 µM (inactive)	> 100 µM (inactive)	–	> 100 µM (inactive)	> 100 µM (inactive)	> 100 µM (inactive)	> 100 µM (inactive)	> 100 µM (inactive)	> 100 µM (inactive)	> 100 µM (inactive)	> 100 µM (inactive)	> 100 µM (inactive)	> 100 µM (inactive)	> 100 µM (inactive)	> 100 µM (inactive)	> 100 µM (inactive)	> 100	> 100 µM (inactive)
N#C/C(=C\c1ccc(F)cc1)c1nc(-c2cc3ccccc3oc2=O)cs1	74 µM (inactive)	–	30.3 µM (inactive)	> 100 µM (inactive)	> 100 µM (inactive)	10.3 µM (inactive)	33.5 µM (inactive)	12.3 µM (inactive)	30.8 µM (inactive)	54.2 µM (inactive)	> 100 µM (inactive)	12.7 µM (inactive)	8.28 µM (inactive)	14.8 µM (inactive)	22.6 µM (inactive)	26.9 µM (inactive)	24.2 µM (inactive)	7.01 µM (inactive)	97.5	> 100 µM (inactive)
COc1ccc(-c2cc(-c3ccc(Nc4ccnc5cc(Cl)ccc45)cc3)[nH]c(=O)c2C#N)cc1	–	> 100 µM (inactive)	> 100 µM (inactive)	> 100 µM (inactive)	> 100 µM (inactive)	> 100 µM (inactive)	> 100 µM (inactive)	> 100 µM (inactive)	> 100 µM (inactive)	> 100 µM (inactive)	> 100 µM (inactive)	> 100 µM (inactive)	80 µM (inactive)	> 100 µM (inactive)	> 100 µM (inactive)	> 100 µM (inactive)	> 100 µM (inactive)	> 100 µM (inactive)	> 100	> 100 µM (inactive)
CCOC(=O)C1=CNC(C(=O)OCC)C1c1cccn1-c1ccccc1 (stereo unspecified)	29.4 µM (inactive)	26.1 µM (inactive)	12.1 µM (inactive)	24.8 µM (inactive)	–	16.3 µM (inactive)	29.4 µM (inactive)	36.7 µM (inactive)	35.8 µM (inactive)	21.2 µM (inactive)	23.5 µM (inactive)	12.5 µM (inactive)	58.3 µM (inactive)	32.5 µM (inactive)	33 µM (inactive)	20.7 µM (inactive)	25.8 µM (inactive)	21.4 µM (inactive)	40.2	32.8 µM (inactive)
CCOC(=O)[C@@]1(C(C)=O)CC(C)=C(C)C[S@@+]1[O-]	> 100 µM (inactive)	> 100 µM (inactive)	> 100 µM (inactive)	> 100 µM (inactive)	–	50.2 µM (inactive)	> 100 µM (inactive)	> 100 µM (inactive)	> 100 µM (inactive)	> 100 µM (inactive)	> 100 µM (inactive)	> 100 µM (inactive)	> 100 µM (inactive)	> 100 µM (inactive)	> 100 µM (inactive)	> 100 µM (inactive)	> 100 µM (inactive)	> 100 µM (inactive)	> 100	> 100 µM (inactive)
O=C(/C=C/c1cccc(Oc2ccccc2)c1)NCc1ccc(C(=O)NCCc2ccccc2)cc1	> 100 µM (inactive)	> 100 µM (inactive)	> 100 µM (inactive)	> 100 µM (inactive)	–	> 100 µM (inactive)	> 100 µM (inactive)	> 100 µM (inactive)	> 100 µM (inactive)	> 100 µM (inactive)	> 100 µM (inactive)	82.4 µM (inactive)	27.2 µM (inactive)	24.1 µM (inactive)	> 100 µM (inactive)	> 100 µM (inactive)	> 100 µM (inactive)	29.4 µM (inactive)	> 100	> 100 µM (inactive)
CC1=NN(C(=O)CC(=O)Nc2cccc(C)c2)C(=O)C1/N=N/c1ccc(C(=O)O)cc1 (stereo unspecified)	> 100 µM (inactive)	> 100 µM (inactive)	> 100 µM (inactive)	37.9 µM (inactive)	> 100 µM (inactive)	34.9 µM (inactive)	–	> 100 µM (inactive)	> 100 µM (inactive)	> 100 µM (inactive)	> 100 µM (inactive)	> 100 µM (inactive)	> 100 µM (inactive)	> 100 µM (inactive)	> 100 µM (inactive)	64.4 µM (inactive)	> 100 µM (inactive)	69.2 µM (inactive)	> 100	> 100 µM (inactive)
c1cc(C[S+]2CCCC2)sc1C[S+]1CCCC1	> 100 µM (inactive)	> 100 µM (inactive)	–	> 100 µM (inactive)	> 100 µM (inactive)	> 100 µM (inactive)	> 100 µM (inactive)	> 100 µM (inactive)	> 100 µM (inactive)	> 100 µM (inactive)	> 100 µM (inactive)	> 100 µM (inactive)	> 100 µM (inactive)	> 100 µM (inactive)	> 100 µM (inactive)	> 100 µM (inactive)	> 100 µM (inactive)	> 100 µM (inactive)	> 100	> 100 µM (inactive)
CCCCC(=O)Nc1ccc2cc(C(=O)OC)c(=O)[nH]c2n1	> 100 µM (inactive)	> 100 µM (inactive)	> 100 µM (inactive)	> 100 µM (inactive)	–	> 100 µM (inactive)	> 100 µM (inactive)	> 100 µM (inactive)	> 100 µM (inactive)	> 100 µM (inactive)	> 100 µM (inactive)	> 100 µM (inactive)	> 100 µM (inactive)	> 100 µM (inactive)	> 100 µM (inactive)	> 100 µM (inactive)	> 100 µM (inactive)	> 100 µM (inactive)	> 100	> 100 µM (inactive)
Cc1cc(C)c2c(c1)C(=O)C1(C2)Cc2c(ccc(C)c2C)C1=O (stereo unspecified)	> 100 µM (inactive)	14.3 µM (inactive)	> 100 µM (inactive)	> 100 µM (inactive)	> 100 µM (inactive)	> 100 µM (inactive)	> 100 µM (inactive)	> 100 µM (inactive)	> 100 µM (inactive)	> 100 µM (inactive)	> 100 µM (inactive)	> 100 µM (inactive)	–	> 100 µM (inactive)	> 100 µM (inactive)	> 100 µM (inactive)	> 100 µM (inactive)	> 100 µM (inactive)	> 100	> 100 µM (inactive)
CC1(C)OC[C@@H]([C@@]2(COC(c3ccccc3)(c3ccccc3)c3ccccc3)CC=CC(=O)O2)O1	30.8 µM (inactive)	35.2 µM (inactive)	11.2 µM (inactive)	33 µM (inactive)	33.7 µM (inactive)	19.4 µM (inactive)	32.1 µM (inactive)	24.2 µM (inactive)	30.9 µM (inactive)	33.1 µM (inactive)	20.1 µM (inactive)	41.7 µM (inactive)	38.5 µM (inactive)	35.1 µM (inactive)	–	32.4 µM (inactive)	48.5 µM (inactive)	14.2 µM (inactive)	31.1	32.8 µM (inactive)
